Laboratory results published in the NIST ThermoML archive (doi:10.1016/j.jct.2015.12.025).

Experiments:
[1] = xn = mol fraction of the nth substance listed; settings: 102 kPa, Liquid, Vibrating tube method
[2] = refractive index (Na D-line) (dimensionless); xn = mol fraction of the nth substance listed; settings: 102 kPa, Liquid, Standard Abbe refractometry

C[Si]1(CCC(F)(F)F)O[Si](C)(CCC(F)(F)F)O[Si](C)(CCC(F)(F)F)O1 (stereo not given) + CCc1ccccc1
Settings	mass density, 308.15 K [kg/m3]	mass density, 313.15 K [kg/m3]	mass density, 318.15 K [kg/m3]	mass density, 323.15 K [kg/m3]	refractive index, 308.15 K	refractive index, 313.15 K	refractive index, 318.15 K	refractive index, 323.15 K
[1], x1 = 0.05	905.01	900.4	895.69	890.85	–	–	–	–
[1], x1 = 0.1	947.97	943.16	938.39	933.5	–	–	–	–
[1], x1 = 0.15	984.47	979.55	974.46	969.52	–	–	–	–
[1], x1 = 0.1967	1013.95	1008.92	1003.57	998.43	–	–	–	–
[1], x1 = 0.25	1043.11	1037.94	1032.55	1027.19	–	–	–	–
[1], x1 = 0.2998	1066.87	1061.66	1056.21	1050.74	–	–	–	–
[1], x1 = 0.35	1088.17	1082.82	1077.22	1071.74	–	–	–	–
[1], x1 = 0.377	1098.7	1093.23	1087.75	1082.06	–	–	–	–
[1], x1 = 0.4437	1121.97	1116.36	1110.93	1104.98	–	–	–	–
[1], x1 = 0.5001	1139.32	1133.58	1127.97	1121.88	–	–	–	–
[1], x1 = 0.5492	1152.93	1147.02	1141.17	1135.21	–	–	–	–
[1], x1 = 0.5994	1165.69	1159.63	1153.7	1147.6	–	–	–	–
[1], x1 = 0.6499	1177.11	1171.2	1165.14	1158.94	–	–	–	–
[1], x1 = 0.6997	1187.73	1181.59	1175.49	1169.24	–	–	–	–
[1], x1 = 0.7502	1197.39	1191.42	1185.03	1178.51	–	–	–	–
[1], x1 = 0.7999	1206.57	1200.31	1193.75	1187.44	–	–	–	–
[1], x1 = 0.8498	1214.84	1208.54	1202.09	1195.57	–	–	–	–
[1], x1 = 0.9002	1222.62	1216.17	1209.67	1203.21	–	–	–	–
[1], x1 = 0.9498	1229.79	1223.31	1216.79	1210.24	–	–	–	–
[1], x1 = 1	1236.63	1230.05	1223.55	1216.99	–	–	–	–
[2], x1 = 0.05	–	–	–	–	1.46829	1.46563	1.46295	1.46034
[2], x1 = 0.1	–	–	–	–	1.4527	1.45013	1.44755	1.445
[2], x1 = 0.15	–	–	–	–	1.43984	1.43731	1.43479	1.43233
[2], x1 = 0.1967	–	–	–	–	1.42972	1.42722	1.42478	1.42233
[2], x1 = 0.25	–	–	–	–	1.41987	1.41742	1.41503	1.41266
[2], x1 = 0.2998	–	–	–	–	1.41202	1.40962	1.40725	1.40493
[2], x1 = 0.35	–	–	–	–	1.40515	1.40278	1.40047	1.39817
[2], x1 = 0.377	–	–	–	–	1.40179	1.39946	1.39713	1.39485
[2], x1 = 0.4437	–	–	–	–	1.39447	1.39219	1.38991	1.38768
[2], x1 = 0.5001	–	–	–	–	1.38911	1.38686	1.38464	1.38243
[2], x1 = 0.5492	–	–	–	–	1.38496	1.38275	1.38053	1.37836
[2], x1 = 0.5994	–	–	–	–	1.3811	1.37891	1.37672	1.37458
[2], x1 = 0.6499	–	–	–	–	1.3776	1.37545	1.37326	1.37112
[2], x1 = 0.6997	–	–	–	–	1.37445	1.37234	1.37017	1.36807
[2], x1 = 0.7502	–	–	–	–	1.37152	1.36941	1.36729	1.36521
[2], x1 = 0.7999	–	–	–	–	1.36888	1.36677	1.36471	1.36262
[2], x1 = 0.8498	–	–	–	–	1.36642	1.36437	1.36228	1.36025
[2], x1 = 0.9002	–	–	–	–	1.36413	1.3621	1.36007	1.35801
[2], x1 = 0.9498	–	–	–	–	1.36206	1.36004	1.35799	1.356
[2], x1 = 1	–	–	–	–	1.36011	1.35808	1.35608	1.35407
